Laboratory results taken from ChEMBL document CHEMBL1149309, “Potent, selective and low-calcemic inhibitors of CYP24 hydroxylase: 24-sulfoximine analogues of the hormone 1alpha,25-dihydroxyvitamin D(3)” (J Med Chem, 2004).

How the values were obtained:
[1] = molecular target: T1, 1,25-dihydroxyvitamin D(3) 24-hydroxylase, mitochondrial (Homo sapiens, UniProt Q07973); assay: Inhibition of human CYP24 hydroxylase expressed in V79 cells; type: cell-based
T1 sequence (Q07973 whole entry): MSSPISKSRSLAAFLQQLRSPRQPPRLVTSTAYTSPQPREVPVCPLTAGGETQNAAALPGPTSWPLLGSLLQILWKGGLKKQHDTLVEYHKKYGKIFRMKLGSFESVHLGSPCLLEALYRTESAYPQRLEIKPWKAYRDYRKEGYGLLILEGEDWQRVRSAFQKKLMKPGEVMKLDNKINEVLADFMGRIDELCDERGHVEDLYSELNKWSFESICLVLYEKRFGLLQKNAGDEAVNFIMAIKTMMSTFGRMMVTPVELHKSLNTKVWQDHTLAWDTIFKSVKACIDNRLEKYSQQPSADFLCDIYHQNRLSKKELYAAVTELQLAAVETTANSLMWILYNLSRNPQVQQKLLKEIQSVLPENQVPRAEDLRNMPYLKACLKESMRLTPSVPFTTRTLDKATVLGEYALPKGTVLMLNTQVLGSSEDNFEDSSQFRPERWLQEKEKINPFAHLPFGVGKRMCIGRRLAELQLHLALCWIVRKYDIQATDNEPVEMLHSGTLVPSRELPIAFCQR

[2] = molecular target: T2, 25-hydroxyvitamin D-1 alpha hydroxylase, mitochondrial (Homo sapiens, UniProt O15528); assay: Inhibition of human CYP27B hydroxylase expressed in SW900 cells; type: cell-based
T2 sequence (O15528 whole entry): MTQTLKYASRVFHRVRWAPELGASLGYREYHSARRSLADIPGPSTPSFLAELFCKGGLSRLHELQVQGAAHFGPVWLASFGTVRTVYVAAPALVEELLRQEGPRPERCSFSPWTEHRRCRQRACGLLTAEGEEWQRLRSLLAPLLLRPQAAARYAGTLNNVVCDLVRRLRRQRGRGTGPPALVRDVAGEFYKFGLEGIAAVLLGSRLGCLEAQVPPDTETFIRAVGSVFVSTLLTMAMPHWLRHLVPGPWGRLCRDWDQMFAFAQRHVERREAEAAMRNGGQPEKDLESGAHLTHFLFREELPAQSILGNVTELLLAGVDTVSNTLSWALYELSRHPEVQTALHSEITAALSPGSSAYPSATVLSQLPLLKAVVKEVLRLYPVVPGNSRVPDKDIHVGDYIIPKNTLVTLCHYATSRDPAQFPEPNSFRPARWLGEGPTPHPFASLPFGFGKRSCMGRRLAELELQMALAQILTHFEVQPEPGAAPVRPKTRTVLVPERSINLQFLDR

[3] = molecular target: T3, Vitamin D3 receptor (Homo sapiens) (UniProt P11473); details: CV-1
T3 sequence (whole entry): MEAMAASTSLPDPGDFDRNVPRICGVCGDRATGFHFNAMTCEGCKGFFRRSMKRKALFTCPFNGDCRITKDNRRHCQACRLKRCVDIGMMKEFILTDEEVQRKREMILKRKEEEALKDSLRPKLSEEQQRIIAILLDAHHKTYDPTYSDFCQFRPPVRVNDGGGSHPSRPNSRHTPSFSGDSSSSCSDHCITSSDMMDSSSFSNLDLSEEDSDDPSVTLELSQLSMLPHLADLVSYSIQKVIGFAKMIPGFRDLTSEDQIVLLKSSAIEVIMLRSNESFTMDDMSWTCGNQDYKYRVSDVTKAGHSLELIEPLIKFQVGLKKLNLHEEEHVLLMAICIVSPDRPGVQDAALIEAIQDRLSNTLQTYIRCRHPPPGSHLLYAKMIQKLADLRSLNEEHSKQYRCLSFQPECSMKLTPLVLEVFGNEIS
Description: Effect on VDR-mediated transcriptional activity in CV1 cells transfected with human recombinant VDR

| Structure (SMILES) | IC50 [1] [nM] | IC50 [2] [nM] | ED50 [3] [nM] |
| --- | --- | --- | --- |
| C=C1/C(=C\C=C2/CCC[C@]3(C)[C@@H]([C@H](C)CC[S+](=N)([O-])c4ccc(F)cc4)CC[C@@H]23)C[C@@H](O)C[C@@H]1O (stereo in doubt; 3i) | 44 |  |  |
| C=C1/C(=C\C=C2/CCC[C@]3(C)[C@@H]([C@H](C)/C=C/[S+](=N)([O-])c4ccccc4)CC[C@@H]23)C[C@@H](O)C[C@@H]1O (stereo partly drawn) | > 1000 |  |  |
| C=C1/C(=C\C=C2/CCC[C@]3(C)[C@@H]([C@H](C)CC4([S+](=N)([O-])c5ccccc5)CC4)CC[C@@H]23)C[C@@H](O)C[C@@H]1O (stereo in doubt; 3g) | 50 |  |  |
| C=C1/C(=C\C=C2/CCC[C@]3(C)[C@@H]([C@H](C)CCS(=N)(=O)c4ccccc4)CC[C@@H]23)C[C@@H](O)C[C@@H]1O (stereo in doubt; 3a) [listing 1 of 2 here] | 7.4 | 554 |  |
| C=C1/C(=C\C=C2/CCC[C@]3(C)[C@@H]([C@H](C)/C=C(\F)[S+](=N)([O-])c4ccccc4)CC[C@@H]23)C[C@@H](O)C[C@@H]1O (stereo partly drawn) | > 1000 |  |  |
| C=C1/C(=C\C=C2/CCC[C@]3(C)[C@@H]([C@H](C)CC4([S+](=N)([O-])c5ccccc5)CC4)CC[C@@H]23)C[C@@H](O)C[C@@H]1O (stereo in doubt; 3f) | 20.5 |  |  |
| C=C1CC[C@H](O)C/C1=C/C=C1\CCC[C@]2(C)[C@@H]([C@H](C)CC[S+](=N)([O-])c3ccccc3)CC[C@@H]12 (stereo partly drawn) | 75 |  |  |
| C[C@H](CC[S+](=N)([O-])c1ccccc1)[C@H]1CC[C@H]2/C(=C/C=C3C[C@@H](O)C[C@H](O)C3)CCC[C@]12C (stereo in doubt; 3c) | 13 |  |  |
| C=C1/C(=C\C=C2/CCC[C@]3(C)[C@@H]([C@H](C)CCS(=N)(=O)c4ccccc4)CC[C@@H]23)C[C@@H](O)C[C@@H]1O (stereo in doubt; 3b) |  |  | > 1000 |
| C=C1/C(=C\C=C2/CCC[C@]3(C)[C@@H]([C@@H](C)/C=C/[S+](=N)([O-])c4ccccc4)CC[C@@H]23)C[C@@H](O)C[C@@H]1O (stereo partly drawn) | 549 |  |  |
| C[C@H](CC[S+](=N)([O-])c1ccccc1)[C@H]1CC[C@H]2/C(=C/C=C3C[C@@H](O)C[C@H](O)C3)CCC[C@]12C (stereo in doubt; 3d) | 9.7 |  |  |
| C=C1/C(=C\C=C2/CCC[C@]3(C)[C@@H]([C@H](C)CCS(=N)(=O)c4ccccc4)CC[C@@H]23)C[C@@H](O)C[C@@H]1O (stereo in doubt; 3a) [listing 2 of 2 here] |  |  | > 1000 |
